In patent US9149038B2, “4-amino-6-(heterocyclic)picolinates and 6-amino-2-(heterocyclic)pyrimidine-4-carboxylates and their use as herbicides” (Dow AgroSciences LLC, priority 2013, dated 2015):
Where two headings read alike, the source gives them in different places.

Experiments:
[1] = system: Key Broadleaf Weed and Crop Species; experiment: Post-Emergent Test II: postemergent herbicidal activity, visual rating after 14 d (Table 7); type: in vivo; settings: post-emergence, 336 h; for pest or weed control at 35 g/ha: 35 g ai/ha; for pest or weed control at 70 g/ha: 70 g ai/ha; for pest or weed control at 140 g/ha: 140 g ai/ha
How it was run: (§1)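 Track-sprayed young seedlings (first/second true leaf) at 187 L/ha across a 2-fold rate series from the high rate down to 1/16×. Kept in greenhouse at 23-29° C day, subirrigated. Injury rated by eye after 14 d, 0 = no injury, 100 = complete kill.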

[2] = system: Key Grass and Sedge Weeds as well as Grass Crops; experiment: Post-Emergent Test II: postemergent herbicidal activity, visual rating after 14 d (Table 8); type: in vivo; settings: post-emergence, 336 h; for pest or weed control at 35 g/ha: 35 g ai/ha; for pest or weed control at 70 g/ha: 70 g ai/ha; for pest or weed control at 140 g/ha: 140 g ai/ha
How it was run: as §1

[3] = ABUTH: velvetleaf (Abutilon theophrasti), read-out: Visual Growth Reduction (%) 14 Days After Application ABUTH
[4] = AMARE: redroot pigweed (Amaranthus retroflexus), read-out: Visual Growth Reduction (%) 14 Days After Application AMARE
[5] = BRSNN: oilseed rape, canola (Brassica napus), read-out: Visual Growth Reduction (%) 14 Days After Application BRSNN
[6] = CHEAL: lambsquarters (Chenopodium album), read-out: Visual Growth Reduction (%) 14 Days After Application CHEAL
[7] = EPHHL: wild poinsettia (Euphorbia heterophylla), read-out: Visual Growth Reduction (%) 14 Days After Application EPHHL
[8] = HELAN: sunflower (Helianthus annuus), read-out: Visual Growth Reduction (%) 14 Days After Application HELAN
[9] = barnyardgrass (Echinochloa crus-galli), read-out: Visual Growth Reduction (%) 14 Days After Application, ECHCG
[10] = giant foxtail (Setaria faberi), read-out: Visual Growth Reduction (%) 14 Days After Application, SETFA
[11] = maize, corn (Zea mays), read-out: Visual Growth Reduction (%) 14 Days After Application, ZEAMX
[12] = rice (Oryza sativa), read-out: Visual Growth Reduction (%) 14 Days After Application, ORYSA
[13] = wheat, spring (Triticum aestivum), read-out: Visual Growth Reduction (%) 14 Days After Application, TRZAS
[14] = yellow nutsedge (Cyperus esculentus), read-out: Visual Growth Reduction (%) 14 Days After Application, CYPES

| Compound | pest or weed control at 35 g/ha [1, 3] [%] | pest or weed control at 70 g/ha [1, 3] [%] | pest or weed control at 140 g/ha [1, 3] [%] | pest or weed control at 35 g/ha [1, 5] [%] | pest or weed control at 70 g/ha [1, 5] [%] | pest or weed control at 140 g/ha [1, 5] [%] | pest or weed control at 35 g/ha [1, 6] [%] | pest or weed control at 70 g/ha [1, 6] [%] | pest or weed control at 140 g/ha [1, 6] [%] | pest or weed control at 35 g/ha [1, 7] [%] | pest or weed control at 70 g/ha [1, 7] [%] | pest or weed control at 140 g/ha [1, 7] [%] | pest or weed control at 35 g/ha [1, 8] [%] | pest or weed control at 70 g/ha [1, 8] [%] | pest or weed control at 140 g/ha [1, 8] [%] | pest or weed control at 35 g/ha [2, 9] [%] | pest or weed control at 70 g/ha [2, 9] [%] | pest or weed control at 140 g/ha [2, 9] [%] | pest or weed control at 35 g/ha [2, 11] [%] | pest or weed control at 70 g/ha [2, 11] [%] | other results |
| --- | --- | --- | --- | --- | --- | --- | --- | --- | --- | --- | --- | --- | --- | --- | --- | --- | --- | --- | --- | --- | --- |
| COC(=O)c1nc(-c2ccc3c(c2)OCC3)c(F)c(N)c1Cl [Compound 100, Methyl 4-amino-3-chloro-6-(2,3-dihydrobenzofuran-6-yl)-5-fluoropicolinate] | 45 to 59 | 85 to 94 | 95 to 100 | 0 to 29 | 0 to 29 | 0 to 29 | 95 to 100 | 95 to 100 | 95 to 100 | 95 to 100 | 95 to 100 | 95 to 100 | 60 to 74 | 60 to 74 | 75 to 84 | 45 to 59 | 75 to 84 | 85 to 94 | 0 to 29 | 95 to 100 | pest or weed control at 35 g/ha [1, 4]: 75 to 84%; pest or weed control at 70 g/ha [1, 4]: 95 to 100%; pest or weed control at 140 g/ha [1, 4]: 95 to 100%; pest or weed control at 35 g/ha [2, 10]: 0 to 29%; pest or weed control at 70 g/ha [2, 10]: 0 to 29%; pest or weed control at 140 g/ha [2, 10]: 0 to 29%; pest or weed control at 140 g/ha [2, 11]: 95 to 100%; pest or weed control at 35 g/ha [2, 12]: 0 to 29%; pest or weed control at 70 g/ha [2, 12]: 0 to 29%; pest or weed control at 140 g/ha [2, 12]: 0 to 29%; pest or weed control at 35 g/ha [2, 13]: 0 to 29%; pest or weed control at 70 g/ha [2, 13]: 0 to 29%; pest or weed control at 140 g/ha [2, 13]: 0 to 29%; pest or weed control at 35 g/ha [2, 14]: 0 to 29%; pest or weed control at 70 g/ha [2, 14]: 0 to 29%; pest or weed control at 140 g/ha [2, 14]: 0 to 29% |
| Nc1c(F)c(-c2ccc3c(c2)OCC3)nc(C(=O)O)c1Cl [Compound 101] | 75 to 84 | 85 to 94 | 95 to 100 | 0 to 29 | 85 to 94 | 95 to 100 | 95 to 100 | 95 to 100 | 95 to 100 | 0 to 29 | 0 to 29 | 30 to 44 | 85 to 94 | 85 to 94 | 85 to 94 | 60 to 74 | 60 to 74 | 75 to 84 | 0 to 29 | 0 to 29 | pest or weed control at 35 g/ha [1, 4]: 95 to 100%; pest or weed control at 70 g/ha [1, 4]: 95 to 100%; pest or weed control at 140 g/ha [1, 4]: 95 to 100%; pest or weed control at 140 g/ha [2, 11]: 0 to 29%; pest or weed control at 35 g/ha [2, 12]: 0 to 29%; pest or weed control at 70 g/ha [2, 12]: 0 to 29%; pest or weed control at 140 g/ha [2, 12]: 0 to 29%; pest or weed control at 35 g/ha [2, 13]: 0 to 29%; pest or weed control at 70 g/ha [2, 13]: 0 to 29%; pest or weed control at 140 g/ha [2, 13]: 0 to 29%; pest or weed control at 35 g/ha [2, 14]: 0 to 29%; pest or weed control at 70 g/ha [2, 14]: 0 to 29%; pest or weed control at 140 g/ha [2, 14]: 0 to 29% |
| COC(=O)c1nc(-c2cccc3c2OCC3)c(F)c(N)c1Cl [Compound 102] | 0 to 29 | 0 to 29 | 45 to 59 | 0 to 29 | 0 to 29 | 0 to 29 | 95 to 100 | 95 to 100 | 95 to 100 | 0 to 29 | 0 to 29 | 0 to 29 | 75 to 84 | 85 to 94 | 85 to 94 | 0 to 29 | 0 to 29 | 0 to 29 | 0 to 29 | 0 to 29 | pest or weed control at 35 g/ha [2, 10]: 0 to 29%; pest or weed control at 70 g/ha [2, 10]: 0 to 29%; pest or weed control at 140 g/ha [2, 10]: 0 to 29%; pest or weed control at 140 g/ha [2, 11]: 0 to 29%; pest or weed control at 35 g/ha [2, 12]: 0 to 29%; pest or weed control at 70 g/ha [2, 12]: 0 to 29%; pest or weed control at 140 g/ha [2, 12]: 0 to 29%; pest or weed control at 35 g/ha [2, 13]: 0 to 29%; pest or weed control at 70 g/ha [2, 13]: 0 to 29%; pest or weed control at 140 g/ha [2, 13]: 0 to 29%; pest or weed control at 35 g/ha [2, 14]: 0 to 29%; pest or weed control at 70 g/ha [2, 14]: 0 to 29%; pest or weed control at 140 g/ha [2, 14]: 0 to 29% |
| COC(=O)c1nc(-c2ccc3c(c2)COC3)c(F)c(N)c1Cl [Compound 103, Methyl 4-amino-3-chloro-6-(1,3-dihydroisobenzofuran-5-yl)-5-fluoropicolinate] | 0 to 29 | 0 to 29 | 0 to 29 | 0 to 29 | 0 to 29 | 0 to 29 | 45 to 59 | 85 to 94 | 95 to 100 | 0 to 29 | 0 to 29 | 0 to 29 | 75 to 84 | 75 to 84 | 75 to 84 | 0 to 29 | 0 to 29 | 0 to 29 | 0 to 29 | 0 to 29 | pest or weed control at 35 g/ha [1, 4]: 0 to 29%; pest or weed control at 70 g/ha [1, 4]: 0 to 29%; pest or weed control at 140 g/ha [1, 4]: 0 to 29%; pest or weed control at 35 g/ha [2, 10]: 0 to 29%; pest or weed control at 70 g/ha [2, 10]: 0 to 29%; pest or weed control at 140 g/ha [2, 10]: 0 to 29%; pest or weed control at 140 g/ha [2, 11]: 0 to 29%; pest or weed control at 35 g/ha [2, 12]: 0 to 29%; pest or weed control at 70 g/ha [2, 12]: 0 to 29%; pest or weed control at 140 g/ha [2, 12]: 0 to 29%; pest or weed control at 35 g/ha [2, 13]: 0 to 29%; pest or weed control at 70 g/ha [2, 13]: 0 to 29%; pest or weed control at 140 g/ha [2, 13]: 0 to 29%; pest or weed control at 35 g/ha [2, 14]: 0 to 29%; pest or weed control at 70 g/ha [2, 14]: 0 to 29%; pest or weed control at 140 g/ha [2, 14]: 0 to 29% |
